Data on 24 compounds can be found in patent US8076486B2, “Heteroaryl-substituted arylaminopyridine derivatives as MEK inhibitors” (Merck Serono S.A., priority 2006, dated 2011).

Molecules are shown by their SMILES. pIC50: −log10 of the molar value.

Experiment [1] relates to human melanoma A375 cells. As to the kind of experiment: Tumor Cell Proliferation Assay (ATP Lite), A375. In kind it is cell-based. The note with it: A-375, 96 h, 4 days, ATPlite. On the procedure: (§1) Assay 2: Tumor Cell Proliferation Assays (ATP Lite)
(§2) Murine colon C26 (1500 cells/well), human melanoma A375 (2000 cells/well), or human pancreatic MiaPaCa-2 cells (2000 cells/well) were plated in white, 96 well plates (Corning) in growth media (DMEM with 10% fetal bovine serum, 2 mM glutamine for C26 and MiaPaCa-2, and RPMI with 10% fetal bovine serum, 2 mM glutamine for A375) and cultured overnight at 37° C. in a humidified, 5% CO2 incubator. Inhibitors were serially diluted in 100% DMSO and subsequently added to the cells, in growth media, to reach a final concentration of 0.25% DMSO. The cells were incubated for 4 days in the presence of the test compounds and the proliferation was quantitated using the ATPlite cell proliferation kit (Packard).
Background: In ATP-based viability assays light output follows the ATP content of the culture.

The target in a further experiment is human MEK1 (Homo sapiens, UniProt Q02750, S218E/S222E). As to the kind of experiment: MEK-1 Enzyme Assay (LANCE-HTRF). In kind it is biochemical. The following applies: MEK-1 EE, ERK-2K52A substrate, 9 uM ATP, 1.5 hrs. On the procedure: Assay 1: MEK-1 Enzyme Assay (LANCE-HTRF)
Sequence of human MEK1 (Q02750 whole entry S218E/S222E): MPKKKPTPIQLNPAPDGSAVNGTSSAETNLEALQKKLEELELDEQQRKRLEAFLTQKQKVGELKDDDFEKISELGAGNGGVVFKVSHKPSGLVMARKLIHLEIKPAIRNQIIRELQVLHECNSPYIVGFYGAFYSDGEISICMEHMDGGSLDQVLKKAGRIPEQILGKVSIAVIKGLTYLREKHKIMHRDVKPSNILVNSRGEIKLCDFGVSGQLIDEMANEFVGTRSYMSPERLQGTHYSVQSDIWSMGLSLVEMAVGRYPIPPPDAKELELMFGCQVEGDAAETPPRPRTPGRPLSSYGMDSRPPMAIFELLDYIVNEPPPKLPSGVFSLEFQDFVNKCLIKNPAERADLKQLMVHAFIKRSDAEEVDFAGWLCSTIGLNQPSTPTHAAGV
Inhibition of human MEK1 kinase activity was monitored with a homogenous, fluorescence-based assay. The assay uses time resolved fluorescence resonance energy transfer to probe for phosphorylation of ERK1 by MEK1. The detailed procedure is described in the following:
Constititutively active MEK-1 EE (150 ng/well) and ERK-2K52A (110 ng/well) were incubated in black, 384 well Optiplates (Perkin Elmer) for 1.5 hrs at room temperature, in the presence of increasing concentrations of inhibitors. The total reaction volume was 50 ul. The inhibitors were serial diluted in kinase buffer (9 uM ATP, 50 mM Tris-Hcl pH 8.0, 10 mM MgCl2, 1 mM DTT and 100 uM Na3VO4), to a final concentration of 1% DMSO. At the end of the incubation, the enzyme reaction was quenched by adding 50 ul of assay buffer containing 50 mM Tris-Hcl, 50 mM EDTA, 0.1% BSA and a mixture of 1.25 ug/mL europium labeled anti-phosphotyrosine mAb (Perkin Elmer) and 5 ug/mL of allophycocyanin labeled anti-GST antibody (CIS-US). Plates were agitated on a plate shaker for 30 minutes and the phosphorylation of the ERK-2K52A substrate was measured by homogeneous time resolved fluorescence (HTRF) at 340 nm excitation and […] emission filters on the VICTOR V fluorescence plate reader. Phosphorylation is expressed as a ratio of 665 nM signal×10,000/615 nM signal. To assess the inhibitory potential of the compounds, IC50-values were determined.

A further experiment deals with Murine colon C26 cells. As to the kind of experiment: Tumor Cell Proliferation Assay (ATP Lite), C26. In kind it is cell-based. The following applies: Mus musculus, 96 h, 4 days, ATPlite. On the procedure: as §1, §2
For experiment [2], the system named is human pancreatic MiaPaCa-2 cells. As to the kind of experiment: Tumor Cell Proliferation Assay (ATP Lite), MiaPaCa-2. In kind it is cell-based. The note with it: MIA PaCa-2, 96 h, 4 days, ATPlite, read-out: MiaPaCa2 cell proliferation IC50. On the procedure:
as §1, §2

In the case of `CCOC(=O)c1nnc(-c2ccncc2Nc2ccc(I)cc2F)o1` [Example 39, 5-[3-(2-Fluoro-4-iodo-phenylamino)-pyridin-4-yl]-[1,3,4]oxadiazole-2-carboxylic acid ethyl ester], the pIC50 in experiment [1] was at least 5.52; against human MEK1, at least 5.52; with Murine colon C26 cells, under 4.60; in experiment [2], under 4.60.
Take `CN(C)CCNc1nnc(-c2ccncc2Nc2ccc(I)cc2F)o1` [Example 22, N-{5-[3-(2-Fluoro-4-iodo-phenylamino)-pyridin-4-yl]-[1,3,4]oxadiazol-2-yl}-N′,N′-dimethyl-ethane-1,2-diamine]: the pIC50 (in experiment [1]; against human MEK1; in the experiment on Murine colon C26 cells; in experiment [2]) was at least 5.52 throughout.
With `Fc1cc(I)ccc1Nc1cnccc1-c1nnc(NCCCN2CCOCC2)o1` [Example 19, (2-Fluoro-4-iodo-phenyl)-{4-[5-(3-morpholin-4-yl-propylamino)-[1,3,4]oxadiazol-2-yl]-pyridin-3-yl}-amine], the pIC50 (in experiment [1]; on human MEK1; in the experiment on Murine colon C26 cells; in experiment [2]) was at least 5.52 each time.
With `C[Si](C)(C)c1[nH]nnc1-c1ccncc1Nc1ccc(I)cc1F` [Example 63, N-(2-fluoro-4-iodophenyl)-4-[5-(trimethylsilyl)-1H-1,2,3-triazol-4-yl]pyridin-3-amine], the pIC50 (in experiment [1]; against human MEK1; with Murine colon C26 cells; in experiment [2]) was at least 5.52 in each case.
Take `Cn1c(-c2ccncc2Nc2ccc(I)cc2F)n[nH]c1=S` [Example 8, 5-[3-(2-Fluoro-4-iodo-phenylamino)-pyridin-4-yl]-4-methyl-2,4-dihydro-[1,2,4]triazole-3-thione]: the pIC50 (in experiment [1]; at human MEK1; in the experiment with Murine colon C26 cells; in experiment [2]) was at least 5.52 in each case.
For the compound `OCc1noc(-c2ccncc2Nc2ccc(I)cc2F)n1` [Example 38, {5-[3-(2-Fluoro-4-iodo-phenylamino)-pyridin-4-yl]-[1,2,4]oxadiazol-3-yl}-methanol], the pIC50 in experiment [1] is at least 5.52; at human MEK1 it was at least 5.52; with Murine colon C26 cells, at least 5.52; in experiment [2] it was 4.60 to 5.52.
Consider `Nc1nnc(-c2ccncc2Nc2ccc(I)cc2Cl)o1` [Example 24, [4-(5-Amino-[1,3,4]oxadiazol-2-yl)-pyridin-3-yl]-(2-chloro-4-iodo-phenyl)-amine], for which the pIC50 (in experiment [1]; against human MEK1; in the experiment on Murine colon C26 cells; in experiment [2]) was at least 5.52 throughout.
Turning to `Nc1nnc(-c2c(Nc3ccc(I)cc3F)cncc2-c2ccccc2F)o1` [Example 58, [4-(5-Amino-[1,3,4]oxadiazol-2-yl)-5-(2-fluoro-phenyl)-pyridin-3-yl]-(2-fluoro-4-iodo-phenyl)-amine], the pIC50 (in experiment [1]; against human MEK1; in the experiment on Murine colon C26 cells; in experiment [2]) was at least 5.52 throughout.
For `OCCNc1nnc(-c2ccncc2Nc2ccc(I)cc2F)o1` [Example 44, 2-{5-[3-(2-Fluoro-4-iodo-phenylamino)-pyridin-4-yl]-[1,3,4]oxadiazol-2-ylamino}-ethanol], the pIC50 (in experiment [1]; on human MEK1; in the experiment on Murine colon C26 cells; in experiment [2]) was at least 5.52 throughout.
Consider `Nc1nnc(-c2cc[n+]([O-])cc2Nc2ccc(I)cc2F)o1` [Example 27, [4-(5-Amino-[1,3,4]oxadiazol-2-yl)-1-oxy-pyridin-3-yl]-(2-fluoro-4-iodo-phenyl)-amine], for which the pIC50 (in experiment [1]; against human MEK1; in the experiment with Murine colon C26 cells; in experiment [2]) was at least 5.52 each time.
`CCOC(=O)C(=O)Nc1nnc(-c2ccncc2Nc2ccc(I)cc2F)o1` [Example 15, N-{5-[3-(2-Fluoro-4-iodo-phenylamino)-pyridin-4-yl]-[1,3,4]oxadiazol-2-yl}-oxalamic acid ethyl ester]: the pIC50 (in experiment [1]; against human MEK1; in the experiment on Murine colon C26 cells; in experiment [2]) was at least 5.52 throughout.
`Cc1cc(I)ccc1Nc1cnccc1-c1nnc(N)[nH]1` [Example 33, [4-(5-Amino-4H-[1,2,4]triazol-3-yl)-pyridin-3-yl]-(4-iodo-2-methyl-phenyl)-amine]: the pIC50 (in experiment [1]; against human MEK1; in the experiment on Murine colon C26 cells; in experiment [2]) was at least 5.52 in each case.
As to `O=c1[nH]nc(-c2ccncc2Nc2ccc(I)cc2F)o1` [Example 1, 5-[3-(2-Fluoro-4-iodo-phenylamino)-pyridin-4-yl]-3H-[1,3,4]oxadiazol-2-one], the pIC50 is at least 5.52 in experiment [1], at least 5.52 on human MEK1, 4.60 to 5.52 with Murine colon C26 cells and 4.60 to 5.52 in experiment [2].
In the case of `Fc1cc(I)ccc1Nc1cnccc1-c1nnc(NCCN2CCCCC2)o1` [Example 18, (2-Fluoro-4-iodo-phenyl)-{4-[5-(2-piperidin-1-yl-ethylamino)-[1,3,4]oxadiazol-2-yl]-pyridin-3-yl}-amine], the pIC50 (in experiment [1]; on human MEK1; in the experiment with Murine colon C26 cells; in experiment [2]) was at least 5.52 each time.
Consider `COC(=O)CNc1nnc(-c2ccncc2Nc2ccc(I)cc2F)o1` [Example 43, {5-[3-(2-Fluoro-4-iodo-phenylamino)-pyridin-4-yl]-[1,3,4]oxadiazol-2-ylamino}-acetic acid methyl ester], for which the pIC50 was at least 5.52 in experiment [1], at least 5.52 against human MEK1, at least 5.52 in the experiment on Murine colon C26 cells and 4.60 to 5.52 in experiment [2].
As to `Fc1cc(I)ccc1Nc1cnccc1-c1ccn[nH]1` [Example 61, (2-Fluoro-4-iodo-phenyl)-[4-(2H-pyrazol-3-yl)-pyridin-3-yl]-amine], the pIC50 in experiment [1] is at least 5.52; against human MEK1 it was at least 5.52; in the experiment with Murine colon C26 cells, 4.60 to 5.52; in experiment [2], at least 5.52.
For the compound `CN(C)C(=O)CNc1nnc(-c2ccncc2Nc2ccc(I)cc2F)o1` [Example 47, 2-{5-[3-(2-Fluoro-4-iodo-phenylamino)-pyridin-4-yl]-[1,3,4]oxadiazol-2-ylamino}-N,N-dimethyl-acetamide], the pIC50 (in experiment [1]; at human MEK1; in the experiment on Murine colon C26 cells; in experiment [2]) was at least 5.52 in each case.
For the compound `Fc1cc(I)ccc1Nc1cnccc1-c1nnco1` [Example 40, (2-Fluoro-4-iodo-phenyl)-(4-[1,3,4]oxadiazol-2-yl-pyridin-3-yl)-amine], the pIC50 (in experiment [1]; against human MEK1; with Murine colon C26 cells; in experiment [2]) was at least 5.52 throughout.
`Fc1cc(I)ccc1Nc1cnccc1-c1nnc(NCCN2CCCC2)o1` [Example 23, (2-Fluoro-4-iodo-phenyl)-{4-[5-(2-pyrrolidin-1-yl-ethylamino)-[1,3,4]oxadiazol-2-yl]-pyridin-3-yl}-amine]: the pIC50 (in experiment [1]; at human MEK1; in the experiment with Murine colon C26 cells; in experiment [2]) was at least 5.52 throughout.
Consider `CC(=O)Nc1nnc(-c2ccncc2Nc2ccc(I)cc2F)o1` [Example 21, N-{5-[3-(2-Fluoro-4-iodo-phenylamino)-pyridin-4-yl]-[1,3,4]oxadiazol-2-yl}-acetamide], for which the pIC50 (in experiment [1]; at human MEK1; in the experiment with Murine colon C26 cells; in experiment [2]) was at least 5.52 each time.
At human MEK1, `CCOC(=O)c1noc(-c2ccncc2Nc2ccc(I)cc2F)n1` [Example 36, 5-[3-(2-Fluoro-4-iodo-phenylamino)-pyridin-4-yl]-[1,2,4]oxadiazole-3-carboxylic acid ethyl ester] gave a pIC50 of at least 5.52.
Same read-out and setting: then `C#Cc1cc(-c2nnc(N)o2)c(Nc2ccc(I)cc2F)cn1` [Example 28, [4-(5-Amino-[1,3,4]oxadiazol-2-yl)-6-ethynyl-pyridin-3-yl]-(2-fluoro-4-iodo-phenyl)-amine], with at least 5.52; and `CCOc1nnc(-c2ccncc2Nc2ccc(I)cc2F)[nH]1` [Example 30, [4-(5-Ethoxy-4H-[1,2,4]triazol-3-yl)-pyridin-3-yl]-(2-fluoro-4-iodo-phenyl)-amine], with at least 5.52; and `Cc1noc(C)c1-c1ccncc1Nc1ccc(I)cc1F` [Example 66], with at least 5.52.
